The values below come from US20240317775A1, “H4 Antagonist Compounds” (HEPTARES THERAPEUTICS LIMITED, priority 2020, published 2024).

Holding throughout (format): cell-based
For series [1], the target named is T1, hERG (Homo sapiens, UniProt Q12809). Briefly: hERG pIC50 assay (QPatch automated patch clamp, CHO cells, 1, 3, 10 and 30 μM). The conditions noted are these: CHO cells expressing hERG, 1-30 μM, ≤4.0 = fails to reach >40% block at 30 μM. An excerpt:
(§1) Series resistance (4-15 MΩ) was compensated by >80%.

The target of series [2] is T2, human H4 receptor (Homo sapiens, UniProt Q9H3N8).
T2 construct: expressed in transfected cells; host or cells: HEKf cells infected with baculovirus
Briefly: H4 Antagonist Functional cAMP Gi Assay. As to conditions: HEKf cells expressing human H4 receptor; functional antagonist pKb by Cheng-Prusoff vs histamine; read-out: Human H4 cAMP fpKb (converted). In a few lines:
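Baculovirus-transduced HEKf cells in HBSS with 500 nM IBMX were stimulated with 1 μM forskolin, incubated 30 min with test compounds, and cAMP was then read by HTRF after 60 min detection at room temperature. EC50 values came from 4-parameter logistic fits; pKb was derived by Cheng-Prusoff.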

In series [3] the target is T1, hERG. Briefly: hERG single-concentration assay (QPatch automated patch clamp, CHO cells, 30 μM). The conditions noted are these: CHO cells stably expressing hERG.
Text: as §1
In general terms: Block of hERG is tested as a sign of cardiac risk.

Series [4] addresses T2, human H4 receptor. The series can be described thus: H4 Antagonist Functional Dynamic Mass Redistribution Assay. The conditions noted are these: HEKf cells expressing human H4 receptor; functional antagonist pKb by Cheng-Prusoff vs histamine EC80; read-out: Human H4 DMR fpKb (converted). The protocol:
HEKf cells were infected using baculovirus expressing the human H4 receptor, plated into fibronectin-coated EPIC plates at a density of 10,000 cells/well and incubated overnight at 37° C. The medium on cells was changed to 30 μL HBSS with 20 mM HEPES per well and 30 nL DMSO were added per well by LabCyte ECHO acoustic dispensing. Following 2 h equilibration at room temperature, 30 nL of H4 ligands prepared in DMSO were stamped by LabCyte ECHO acoustic dispensing into seeded EPIC plates and cellular dynamic mass redistribution was monitored using a Corning EPIC plate reader. Following 45 min measurement, 30 nL/well of histamine EC80 was added and monitored to obtain antagonist assay data. Maximum baseline-corrected responses in pm were used to generate concentration response curves. EC50 values were generated using a 4-parameter logistical fit equation to quantify agonist potencies. Functional antagonist affinity values were generated using the Cheng-Prusoff equation to calculate a pKb value using the antagonist assay data.

T1 sequence (Q12809 whole entry): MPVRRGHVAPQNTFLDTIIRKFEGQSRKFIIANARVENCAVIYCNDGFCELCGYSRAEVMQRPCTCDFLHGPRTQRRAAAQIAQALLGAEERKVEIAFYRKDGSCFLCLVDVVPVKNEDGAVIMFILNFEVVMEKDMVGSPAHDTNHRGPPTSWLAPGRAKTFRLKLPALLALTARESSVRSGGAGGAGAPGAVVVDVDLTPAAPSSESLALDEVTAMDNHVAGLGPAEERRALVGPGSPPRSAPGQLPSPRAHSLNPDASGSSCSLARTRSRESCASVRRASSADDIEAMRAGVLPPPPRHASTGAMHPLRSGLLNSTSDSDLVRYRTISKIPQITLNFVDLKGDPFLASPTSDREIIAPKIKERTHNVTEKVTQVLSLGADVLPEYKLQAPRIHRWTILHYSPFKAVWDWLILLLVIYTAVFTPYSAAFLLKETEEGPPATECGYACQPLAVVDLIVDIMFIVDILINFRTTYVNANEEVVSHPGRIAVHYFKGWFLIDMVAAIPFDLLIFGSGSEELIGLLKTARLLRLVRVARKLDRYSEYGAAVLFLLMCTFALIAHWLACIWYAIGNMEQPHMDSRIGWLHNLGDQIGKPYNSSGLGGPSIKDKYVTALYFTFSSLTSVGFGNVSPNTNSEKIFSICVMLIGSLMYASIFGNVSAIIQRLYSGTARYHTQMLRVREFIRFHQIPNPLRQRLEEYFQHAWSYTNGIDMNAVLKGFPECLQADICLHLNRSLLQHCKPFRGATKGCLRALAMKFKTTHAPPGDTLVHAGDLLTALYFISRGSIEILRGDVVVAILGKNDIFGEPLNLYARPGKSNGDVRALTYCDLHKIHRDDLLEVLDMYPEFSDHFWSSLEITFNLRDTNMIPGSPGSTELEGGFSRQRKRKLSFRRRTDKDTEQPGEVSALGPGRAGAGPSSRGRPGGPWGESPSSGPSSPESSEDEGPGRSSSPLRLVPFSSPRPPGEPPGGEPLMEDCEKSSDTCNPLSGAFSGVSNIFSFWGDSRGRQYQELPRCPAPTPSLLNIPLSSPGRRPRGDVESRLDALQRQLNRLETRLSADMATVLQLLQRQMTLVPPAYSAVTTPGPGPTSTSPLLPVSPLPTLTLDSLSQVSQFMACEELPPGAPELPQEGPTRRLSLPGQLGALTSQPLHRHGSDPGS
T2 sequence (Q9H3N8 whole entry): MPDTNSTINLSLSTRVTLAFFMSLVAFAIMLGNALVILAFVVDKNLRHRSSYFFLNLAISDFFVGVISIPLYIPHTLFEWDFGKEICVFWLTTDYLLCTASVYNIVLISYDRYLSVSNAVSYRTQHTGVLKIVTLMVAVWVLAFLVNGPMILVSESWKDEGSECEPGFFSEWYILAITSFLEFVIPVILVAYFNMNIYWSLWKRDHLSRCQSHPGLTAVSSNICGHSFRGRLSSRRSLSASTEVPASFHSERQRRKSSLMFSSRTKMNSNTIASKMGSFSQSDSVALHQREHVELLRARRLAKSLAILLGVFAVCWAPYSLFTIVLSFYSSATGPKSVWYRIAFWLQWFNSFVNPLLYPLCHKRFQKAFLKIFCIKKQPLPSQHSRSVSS

What is called IC50 is the concentration that inhibits the measured activity by half. A high value points to weaker potency in that assay. Usually inhibition stands for how much of the control response was suppressed. Low readings indicate a weak effect, high ones a strong effect. Consider `CC[C@@H]1CCOc2c(nc(N)nc2N2CC[C@@H](NC)C2)N1` [Example 11-4, (R)-8-Ethyl-4-((R)-3-(methylamino)pyrrolidin-1-yl)-6,7,8,9-tetrahydropyrimido[5,4-b][1,4]oxazepin-2-amine], for which the IC50 against hERG [1] was at least 100000 nM. Besides, the Kb at human H4 receptor [2] is 0.631 nM; at human H4 receptor [4], 1.26 nM. Moreover, the inhibition at 30 µM at hERG [3] was determined as 39%.
Regarding `CNC1CN(c2nc(N)nc3c2OCC[C@@H](C(C)C)N3)C1` [Example 13-1, (S)-8-Isopropyl-4-(3-(methylamino)azetidin-1-yl)-6,7,8,9-tetrahydropyrimido[5,4-b][1,4]oxazepin-2-amine], the IC50 on hERG [1] is at least 100000 nM. Moreover, the Kb on human H4 receptor [2] is 1 nM; at human H4 receptor [4] it was 1.58 nM. The molecule further yielded an inhibition at 30 µM on hERG [3] of 15%.
